In experiment [1] the target is T1, MASTL kinase (Homo sapiens, UniProt Q96GX5).
T1 construct: GST; purchased Thermo Fisher Scientific
T1 sequence (Q96GX5 1-879): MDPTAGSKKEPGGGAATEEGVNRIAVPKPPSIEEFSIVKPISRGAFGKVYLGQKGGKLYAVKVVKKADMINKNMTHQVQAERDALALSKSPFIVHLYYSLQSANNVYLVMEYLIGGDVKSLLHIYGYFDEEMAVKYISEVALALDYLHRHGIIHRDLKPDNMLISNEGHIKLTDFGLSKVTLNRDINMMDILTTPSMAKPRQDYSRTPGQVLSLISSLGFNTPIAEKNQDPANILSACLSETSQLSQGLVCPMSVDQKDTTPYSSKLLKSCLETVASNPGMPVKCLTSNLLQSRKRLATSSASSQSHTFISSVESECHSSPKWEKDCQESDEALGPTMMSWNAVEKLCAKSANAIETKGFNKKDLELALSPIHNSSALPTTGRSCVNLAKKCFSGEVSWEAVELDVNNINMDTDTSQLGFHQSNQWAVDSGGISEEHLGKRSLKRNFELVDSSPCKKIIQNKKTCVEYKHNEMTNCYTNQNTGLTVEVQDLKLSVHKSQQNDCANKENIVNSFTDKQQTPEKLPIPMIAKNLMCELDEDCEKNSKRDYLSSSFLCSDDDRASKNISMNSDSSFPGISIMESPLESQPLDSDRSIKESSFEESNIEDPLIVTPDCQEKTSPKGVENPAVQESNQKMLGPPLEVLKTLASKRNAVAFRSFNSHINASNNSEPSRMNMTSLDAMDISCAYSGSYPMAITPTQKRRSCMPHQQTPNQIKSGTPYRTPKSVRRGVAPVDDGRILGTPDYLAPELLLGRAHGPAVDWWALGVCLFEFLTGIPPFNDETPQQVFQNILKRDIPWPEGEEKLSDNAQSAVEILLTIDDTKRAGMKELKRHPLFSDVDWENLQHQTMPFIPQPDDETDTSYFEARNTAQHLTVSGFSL
Description: In vitro MASTL kinase analysis, immunoblotting for phosphorylated ENSA. It counts as biochemical. As to conditions: western blot, 50 μM or more, FIG. 3. As for the experimental part: The MASTL kinase analysis in vitro was performed by reacting recombinant GST-tagged-MASTL (Thermo Fisher Scientific, Waltham, MA, USA) and his-tagged-ENSA (Sino Biological Inc., Beijing, China) proteins or immunoprecipitated proteins derived from MCF7 cells with the MASTL antibody (AP7147d; Abgent, CA, USA) in a kinase buffer consisting of 100 mM Tris-HCl (pH 7.5), 30 mM MgCl2, 2 mM DTT, 1 mM EDTA and 10 μM ultrapure ATP. The reaction proceeded, and then stopped by treating with SDS-loading buffer. In this experiment, the multi-AGC kinase inhibitor AT13148 was used as a positive control. The reaction was analyzed by performing immunoblotting for phosphorylated ENSA, and the results of the analysis were shown in FIG. 1B, and the results of the experiments confirming the cell survival and the kinase inhibitor activity were shown in FIG. 1C.
A protein kinase analysis was performed using the ADP-Glo™ kinase assay kit according to the standard protocol provided by Promega. […] Then, the reacted product was transferred to a 384-well white plate, and […] was read using a SpectraMax i3× Multi-Mode Microplate Reader (Molecular Devices), and GKI-1, N-(4-chlorophenyl)-3-(1H-pyrazol-4-yl)aniline and AT13148 were used as positive controls. The effect of inhibiting kinase activity of GKI-1 and MKI-1 and its IC50 confirmed through the reading result were shown in FIG. 2. […]

Experiment [2] deals with MASTL kinase (p-ENSA). Description: Western blotting of phosphorylated ENSA in MCF7 cells. It counts as cell-based, human. As to conditions: western blot, FIG. 5. As for the experimental part:
20 μg of protein was separated by SDS-PAGE electrophoresis and transferred to a PVDF membrane, and the following specific antibodies were used: rabbit polyclonal antibody MASTL (Abgent); phospho-ENSA (Ser67)/ARPP19 (Ser62) (#5240), ENSA (#11915S), cleaved PARP (Asp214) (#9541), AKT (#9272), phospho-AKT (ser473) (#9271), phospho-GSK-3α/β (Ser21/9) (#9331), phospho-p70S6K (The 288) (#9205) and phospho-Chk2 (Thr68) (#2661; Cell Signaling Technology, MA); p70S6K (sc-230; Santa Cruz Biotechnology, CA, USA), phospho-H3 (S10) (06-570, Merck, NJ); mouse monoclonal antibody caspase-2 (#2224S). In addition, mouse […] antibody β-actin (C4; Santa Cruz Biotechnology, CA, USA) was used as a loading control, it was washed with 1×PBS/0.1% Tween 20, and the binding protein was detected using HRP-binding secondary antibody and improved chemiluminescence detection system. The remaining conditions of Western blotting were the same as in Example 3, and the image of the band was obtained by Amersham Imager 600 system (GE Healthcare Life Science) or X-Ray film (AG, HealthCare, SC, USA) and it was shown in FIG. 5.

In experiment [3] the test system is MASTL kinase (phosphorylated ENSA). Put plainly: Immunofluorescence staining of phosphorylated ENSA (Ser67)/ARPP19 (ser62) in MCF7. It is filed as cell-based, human. As to conditions: with Colcemid 16 to 18 hours, FIG. 4. Here is the method: After culturing 2.5×10^4 MCF7 cells in a 6-well plate for 24 hours, 80 ng/mL of a MASTL kinase inhibitor and a cell cycle control agent Colcemid (KaryoMAX™ Colcemid™ Solution in PBS; Gibco) were treated for 16 to 18 hours. After washing with phosphate buffered saline for fixation and permeabilization of cells, 4% paraformaldehyde and 0.2% Triton-X were added and reacted for 10 minutes, respectively. After 1 hour pretreatment with 5% fetal bovine serum, 1:100 diluted antibody against phosphorylated ENSA (Ser67)/ARPP19 (ser62) was treated for 16 hours, and then it was washed with 0.1% Triton X-100/phosphate buffered saline solution (Tritonx-100/PBS) 3 times. Alexa488-conjugated secondary antibody (AP132JA4, Invitrogen) was reacted for 2 hours at room temperature to label, and phosphorylated ENSA was photographed and analyzed using IN Cell Analyzer 6000 (GE Healthcare Life Science).

The structures appear in SMILES notation.

For the compound `O=C(Nc1nc2ccccc2[nH]1)c1cccc(-n2cccc2)c1` [MKI-1, N-1H-benzimidazol-2-yl-3-(1H-pyrrol-1-yl) benzamide], the “ENSA phosphorylation (p-ENSA) in vitro” value in experiment [1] is “p-ENSA did not appear”. Further, the “expression level of phosphorylated p-ENSA” value in experiment [2] is “reduced the expression level of phosphorylated p-ENSA in MCF7 cells in a dose-dependent manner”. In addition, the “phosphorylation of ENSA in MCF7 relative to DMSO” value in experiment [3] is on record as “close to about half of that of DMSO”.
